Measurements: patent US6903132B2, “Non-peptide GnRH agents, pharmaceutical compositions and methods for their use” (Agouron Pharmaceuticals, Inc., priority 2002, dated 2005)

Tests used:
Experiment in all cases: Radioligand binding assay: inhibition of binding of 125I-GnRH-A to GnRH receptors (membranes)
mouse GnRH receptors = target: T1, mouse GnRH receptors (Mus musculus, UniProt Q01776); details: Mouse GnRH receptor; competition with 125I-GnRH-A; Ki calculated from IC50 (Cheng et al.)
T1 construct: expressed in transfected cells; host or cells: HEK 293
T1 sequence (Q01776 1-327): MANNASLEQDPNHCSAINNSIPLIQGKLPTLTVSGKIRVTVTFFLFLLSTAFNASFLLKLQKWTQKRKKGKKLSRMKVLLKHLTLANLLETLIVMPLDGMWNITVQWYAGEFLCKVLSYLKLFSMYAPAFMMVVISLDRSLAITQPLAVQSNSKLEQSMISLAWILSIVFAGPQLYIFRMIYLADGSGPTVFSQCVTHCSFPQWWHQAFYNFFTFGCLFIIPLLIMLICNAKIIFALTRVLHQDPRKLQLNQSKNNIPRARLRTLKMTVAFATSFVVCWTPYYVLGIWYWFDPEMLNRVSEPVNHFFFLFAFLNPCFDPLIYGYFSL
In short: (§1)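 Membranes from HEK 293 expressing mouse or human receptor, or rat pituitaries, incubated 1 h at RT with ~0.04–0.06 nM ¹²⁵I-[des-Gly¹⁰,D-Ala⁶]GnRH ethylamide and competitor (0.1–10,000 nM) in HEPES pH 7.4 with MgCl2, EDTA, BSA. Filtration onto PEI-soaked GF/C filters, scintillation counting; Ki from IC50 by Cheng–Prusoff.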

rat GnRH receptor = target: T2, rat GnRH receptor (Rattus norvegicus, UniProt P30969); details: competition with 125I-GnRH-A, Ki calculated from IC50 (Cheng et al.)
T2 construct: rat pituitaries (Pel Freez Biologicals, Rogers, Ark.) are homogenized in buffer A; tissue Pel Freez Biologicals; host or cells: rat pituitaries
T2 sequence (P30969 1-327): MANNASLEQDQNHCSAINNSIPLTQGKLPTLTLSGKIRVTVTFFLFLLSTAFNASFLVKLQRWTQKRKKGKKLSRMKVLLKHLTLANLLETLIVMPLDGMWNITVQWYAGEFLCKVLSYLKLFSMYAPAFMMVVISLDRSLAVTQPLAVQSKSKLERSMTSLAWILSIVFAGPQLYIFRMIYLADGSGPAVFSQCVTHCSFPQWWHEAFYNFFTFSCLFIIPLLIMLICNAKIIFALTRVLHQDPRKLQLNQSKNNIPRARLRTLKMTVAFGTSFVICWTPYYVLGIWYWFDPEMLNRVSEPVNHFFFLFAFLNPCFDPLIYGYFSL
In short: as §1

human GnRH receptors = target: T3, human GnRH receptors (Homo sapiens, UniProt P30968); details: Human GnRH receptor; competition with 125I-GnRH-A; Ki calculated from IC50 (Cheng et al.)
T3 construct: expressed in transfected cells; host or cells: HEK 293
T3 sequence (P30968 1-328): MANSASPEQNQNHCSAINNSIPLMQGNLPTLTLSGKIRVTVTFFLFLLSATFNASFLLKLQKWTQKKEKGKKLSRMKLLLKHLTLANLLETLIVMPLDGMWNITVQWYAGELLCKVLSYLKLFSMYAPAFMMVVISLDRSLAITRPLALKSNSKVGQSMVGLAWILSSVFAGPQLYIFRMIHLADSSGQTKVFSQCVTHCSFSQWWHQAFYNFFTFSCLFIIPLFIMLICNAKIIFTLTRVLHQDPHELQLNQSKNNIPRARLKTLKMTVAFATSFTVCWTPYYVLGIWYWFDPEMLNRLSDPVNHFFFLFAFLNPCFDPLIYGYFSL
In short: as §1

SMILES	Ki (mouse GnRH receptors) [nM]	Ki (rat GnRH receptor) [nM]	Ki (human GnRH receptors) [nM]
Cc1ccc(C(C)(C)C)cc1Cc1ccc(C(=O)NNc2ccc3ccccc3n2)o1 [Example B3, 5-[5-(tert-butyl)-2-methylbenzyl]-N′-(2-quinolinyl)-2-furohydrazide]	84	65	95
Cc1cc2c(c(O)c1Oc1ccc(C(=O)NNc3cc(C)c4c(C)nn(C)c4n3)o1)C(C)(C)CCC2(C)C [Example I29, 5-(1-Hydroxy-3,5,5,8,8-pentamethyl-5,6,7,8-tetrahydro-naphthalen-2-yloxy)-furan-2-carboxylic acid N′-(1,3,4-trimethyl-1H-pyrazolo[3,4-b]pyridin-6-yl)-hydrazide]	58	64	49
Cc1sc2c(c1Cc1ccc(C(=O)NNc3cc(C)c4c(C)nn(C)c4n3)o1)C(C)(C)CCC2(C)C [Example J23]	280	660	140
Cc1sc2c(c1Cc1ccc(C(=O)NNc3cc(C)c4c(C)nn(C)c4n3)o1)C(C)(C)CCC2(C)C [Example J28, 5-(2,4,4,7,7-Pentamethyl-4,5,6,7-tetrahydro-benzo[b]thiophen-3-ylmethyl)-furan-2-carboxylic acid N′-(1,3,4-trimethyl-1H-pyrazolo[3,4-b]pyridin-6-yl)-hydrazide]	130	245	30
Cc1cc(NNC(=O)c2ccc(Oc3cc(C(C)(C)C)c(Br)cc3Br)o2)nc2c1c(C)nn2C [Example I12, 5-(2,4-Dibromo-5-tert-butyl-phenoxy)-furan-2-carboxylic acid N′-(1,3,4-trimethyl-1H-pyrazolo[3,4-b]pyridin-6-yl)-hydrazide]	260	1160	165
Cc1ccc(C(C)(C)C)cc1Oc1ccc(C(=O)NNc2ccc3ccccc3n2)o1 [Example I17, 5-(5-tert-Butyl-2-methyl-phenoxy)-furan-2-carboxylic acid N′-quinolin-2-yl-hydrazide]	43	50	70
Cc1cc2c(c(Br)c1Oc1ccc(C(=O)NNc3cc(C)c4c(C)nn(C)c4n3)o1)C(C)(C)CCC2(C)C [Example I8, 5-(1-Bromo-3,5,5,8,8-pentamethyl-5,6,7,8-tetrahydro-naphthalen-2-yloxy)-furan-2-carboxylic acid N′-(1,3,4-trimethyl-1H-pyrazolo[3,4-b]pyridin-6-yl)-hydrazide]	16	29	6.3
Cc1cc2c(cc1Cc1ccc(C(=O)NNc3cc(C)c4c(C)nn(C)c4n3)o1)C(C)(C)CC2(C)C [Example J15, 5-[(1,1,3,3,6-pentamethyl-2,3-dihydro-1H-inden-5-yl)methyl]-N-(1,3,4-trimethyl-1H-pyrazdo[3,4-b]Pyridin-6-yl)-2-furohydrazide]	3.3	2	0.9
COc1cc2c(c(C)c1Oc1ccc(C(=O)NNc3cc(C)c4c(C)nn(C)c4n3)o1)C(C)(C)CCC2(C)C [Example I25, 5-(3-Methoxy-1,5,5,8,8-pentamethyl-5,6,7,8-tetrahydro-naphthalen-2-yloxy)-furan-2-carboxylic acid N′-(1,3,4-trimethyl-1H-pyrazolo[3,4-b]pyridin-6-yl)-hydrazide]	38	59	31
Cc1cc(NNC(=O)c2ccc(Oc3cc4c(cc3Cl)N(C)CCC4(C)C)o2)nc2c1c(C)nn2C [Example I27, 5-(7-Chloro-1,4,4-trimethyl-1,2,3,4-tetrahydro-quinolin-6-yloxy)-furan-2-carboxylic acid N′-(1,3,4-trimethyl-1H-pyrazolo[3,4-b]pyridin-6-yl)-hydrazide]	122	370	101
Cc1ccc(C2CCCCC2)cc1Cc1ccc(C(=O)NNc2cc(C)c3c(C)nn(C)c3n2)o1 [Example J16, 5-(5-cyclohexyl-2-methylbenzyl)-N′-(1,3,4-trimethyl-1H-pyrazolo[3,4-b]pyridin-6-yl)-2-furohydrazide]	233	122	97
Cc1cc(C)c(C)c(Cc2ccc(C(=O)NNc3cc(C)c4c(C)nn(C)c4n3)o2)c1C [Example J12, 5-(2,3,5,6-Tetramethylbenzyl)-N′-(1,3,4-trimethyl-1H-pyrazolo[3,4-b]pyridin-6-yl)-2-furohydrazide]	850	1200	260
Cc1cc2c(cc1Oc1ccc(C(=O)NNc3cc(C)c4c(C)nn(C)c4n3)o1)C(C)(C)OC2 [Example N2, 5-(3,3,6-Trimethyl-1,3-dihydro-isobenzofuran-5-yloxy)-furan-2-carboxylic acid N′-(1,3,4-trimethyl-1H-pyrazolo[3,4-b]pyridin-6-yl)-hydrazide]	22	86	28
Cc1cc2c(cc1Oc1ccc(C(=O)NNc3cc(C)c4c(C)nn(C)c4n3)o1)C(C)(C)CC2 [Example I7, 5-(3,3,6-Trimethyl-indan-5-yloxy)-furan-2-carboxylic acid N′-(1,3,4-trimethyl-1H-pyrazolo[3,4-b]pyridin-6-yl)-hydrazide]	11	17	2.8
Cc1cc(NNC(=O)c2ccc(Oc3cc(C(C)(C)C)ccc3Br)o2)nc2c1c(C)nn2C [Example I6, 5-(2-Bromo-5-tert-butyl-phenoxy)-furan-2-carboxylic acid N′-(1,3,4-trimethyl-1H-pyrazolo[3,4-b]pyridin-6-yl)-hydrazide]	61	79	50
COc1ccc(C(C)(C)C)cc1Cc1ccc(C(=O)NNc2cc(C)c3c(C)nn(C)c3n2)o1 [Example J19, 5-[5-(tert-butyl)-2-methoxybenzyl]-N′-(1,3,4-trimethyl-1H-pyrazolo[3,4-b]pyridin-6-yl)-2-furohydrazide]	320	230	140
COc1c(C(C)C)cc(Cl)c(C)c1Cc1ccc(C(=O)NNc2cc(C)c3c(C)nn(C)c3n2)o1 [Example J24, 5-(3-chloro-5-isopropyl-6-methoxy-2-methylbenzyl)-N′-(1,3,4-trimethyl-1H-pyrazolo[3,4-b]pyridin-6-yl)-2-furohydrazide]	400	1130	130
Cc1cc(C)c(-c2ccccc2)cc1Cc1ccc(C(=O)NNc2cc(C)c3c(C)nn(C)c3n2)o1 [Example J18, 5-[(4,6-dimethyl[1,1′-biphenyl]-3-yl)methyl]-N′-(1,3,4-trimethyl-1H-pyrazolo[3,4-b]pyridin-6-yl)-2-furohydrazide]	480	290	170
Cc1cc2c(c(Br)c1Oc1ccc(C(=O)NNc3cc(C)c4c(C)nn(C)c4n3)o1)C(C)(C)CCC2 [Example I11, 5-(1-Bromo-3,8,8-trimethyl-5,6,7,8-tetrahydro-naphthalen-2-yloxy)-furan-2-carboxylic acid N′-(1,3,4-trimethyl-1H-pyrazolo[3,4-b]pyridin-6-yl)-hydrazide]	250	790	170
COc1c(Oc2ccc(C(=O)NNc3cc(C)c4c(C)nn(C)c4n3)o2)c(C)cc2c1C(C)(C)CCC2 [Example I10, 5-(1-Methoxy-3,8,8-trimethyl-5,6,7,8-tetrahydro-naphthalen-2-yloxy)-furan-2-carboxylic acid N′-(1,3,4-trimethyl-1H-pyrazolo[3,4-b]pyridin-6-yl)-hydrazide]	160	230	146
Cc1cc2c(cc1Cc1ccc(C(=O)NNc3ncccc3C(F)(F)F)o1)C(C)(C)CCC2(C)C [Example C11, 5-[(3,5,5,8,8-Pentamethyl-5,6,7,8-tetrahydro-2-naphthalenyl)methyl]-N′-[3-(trifluoromethyl)-2-pyridinyl]-2-furohydrazide]	67	84	63
